Test results: US7279293B2 (priority 2002, dated 2007)
Entries after “also recorded” stand apart in the source; their conditions may differ.

Experiments:
Type in all cases: cell-based
[1] = target: T1, wild type mouse H3 receptor and mouse H3 receptor mutants MT1, MT2, MT3, MT5, MT6 (Mus musculus, UniProt P58406, A357K)
T1 construct: expressed in transfected cells
Method: (§1) Wild type mouse H3 receptor cDNA and the five mouse H3 receptor mutant cDNAs were each transfected into cell line HEK293, and screened with G418 to obtain their respective stable clones. Northern analysis was used to check expression levels, and stable clones with roughly equal expression levels were used in the experiment.
(§2) Since H3 receptors are Gi-binding-type G protein-coupled receptors, cAMP levels were measured using ELISA. More specifically, 10^5 cells per well were cultured in a 24-well plate the day before testing. On the day of the test, cells were cultured for 15 minutes in the absence of serum, and then treated for 15 minutes with 0.5 mM IBMX. Forskolin (10 μM), histamine (10^−11 M to 10^−6 M) and thioperamide (10^−10 M to 10^−5 M) were respectively added, and the cells were treated for 15 minutes. The cAMP Enzyme Immunoassay (EIA) System (Amersham) was used to measure cAMP. The cells were lysed with 150 μl of lysing reagent 1B, provided with the kit. 5 μl of the cell lysate and rabbit anti-cAMP antibody were reacted by being allowed to stand undisturbed at 4° C. for two hours on an antibody-immobilized plate. Moreover, enzyme-labeled antibody was added and reacted by being allowed to stand undisturbed at 4° C. for one hour. The plate was washed with buffer, and enzyme substrate solution was then added and reacted by being allowed to stand undisturbed at room temperature for about 30 minutes. The reaction was stopped with 1 N sulfuric acid, and optical absorbance was then measured. A standard curve was produced from the optical absorbances of standard cAMP solutions, and cAMP levels were determined.

[2] = target: T2, MT6 clone (constitutively active mouse H3 receptor mutant) (Mus musculus, UniProt P58406, A357K); assay: cAMP levels by ELISA (cAMP EIA) in the HEK293 MT6 clone, with 10 μM forskolin; details: thioperamide with 10 μM forskolin; MT6 clone versus wild type H3
T2 construct: expressed in transfected cells
Method: as §1
as §2, with “Moreover, enzyme-labeled antibody was added and reacted by being allowed to stand undisturbed at 4° C. for one hour. The plate was washed with buffer, and enzyme substrate solution was then added and reacted by being allowed to stand undisturbed at room temperature for about 30 minutes.” left out

[3] = system: wild type mouse H3 receptor and mouse H3 receptor mutants MT1, MT2, MT3, MT5, MT6; details: 10 μM forskolin
Method: as §1, §2

T1 sequence (P58406 whole entry A357K): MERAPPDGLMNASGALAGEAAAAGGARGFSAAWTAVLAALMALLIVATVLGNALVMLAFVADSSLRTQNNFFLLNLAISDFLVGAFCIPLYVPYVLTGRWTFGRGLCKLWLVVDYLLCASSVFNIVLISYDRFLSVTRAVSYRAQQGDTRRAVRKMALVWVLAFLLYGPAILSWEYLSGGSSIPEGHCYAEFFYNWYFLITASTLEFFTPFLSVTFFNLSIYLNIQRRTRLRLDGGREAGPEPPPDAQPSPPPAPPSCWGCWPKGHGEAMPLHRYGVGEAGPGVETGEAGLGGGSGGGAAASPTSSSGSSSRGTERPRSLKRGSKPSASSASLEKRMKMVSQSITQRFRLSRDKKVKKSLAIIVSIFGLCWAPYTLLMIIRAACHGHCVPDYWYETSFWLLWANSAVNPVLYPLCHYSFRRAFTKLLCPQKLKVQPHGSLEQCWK
T2 sequence (P58406 whole entry A357K): as above

Compound: S=C(NC1CCCCC1)N1CCC(c2cnc[nH]2)CC1 [thioperamide]
- change in cAMP levels caused by thioperamide [1]: increase with increased doses of thioperamide; also recorded: increase cAMP levels dose-dependently
- cAMP increase in MT6 clone compared to the wild type [2]: about five-fold

Compound: NCCc1c[nH]cn1 [histamine]
- change in cAMP levels caused by histamine ([3]; all clones, histamine 10^-11 M to 10^-6 M, 15 minutes, FIG. 4): decrease in a histamine dose-dependent manner; also recorded: decreased histamine dose-dependently

Compound: pertussis toxin [PTX]
- effect of PTX on the cAMP increases caused by thioperamide ([3]; wild type H3 and MT6 clones, PTX 100 ng/ml for 18 hours): inhibited the increases in cAMP caused by thioperamide
